Laboratory results published in patent US4456597A.

Columns and labels:
Assay type in all cases: cell-based
Details in all cases: 1.0 μg/ml
spleen cell suspension [1] = assay: IF induction in vitro, mouse (Table 6)
Experimental: (§1) A spleen cell suspension (10^7 cells/ml) was prepared by the method of hereinafter described Experiment 1 using an Eagle MEM medium (commercial product of Nissui Seiyaku K.K., Tokyo) containing a 10% calf serum (which was replaced by a 10% fetal cattle serum in the cases of human tests), each of which fraction (1 ml) was added with a given concetration of the sample and incubated overnight at a given temperature. The cultured liquor was centrifuged to separate a supernatant which was used for determining the IF activity induced. In the case of humans, the fresh spleen was collected from a person (adult deceased by external wounds) and used for the preparation of a leucocytes suspension on each occasion, and also blood was collected from the vein at the upper arm of a person (adult), from which the serum was separated to use for the preparation of a serum suspension on each occasion.
(§2) The IF activities were determined by using the cells shown in Table 5 in a similar manner to that hereinafter described in Experiment 1.

spleen cell suspension [2] = assay: IF induction in vitro, rabbit (Table 6)
Experimental: as §1, §2

Human (spleen) = assay: IF induction in vitro, human spleen (Table 6)
Experimental: as §1, §2

Poly I:C
IF activity in vitro (Control) (spleen cell suspension [1]): 80 | IF activity in vitro (Control) (spleen cell suspension [2]): 190 | IF activity in vitro (Control) (Human (spleen)): < 10
